Results: patent US20190151241A1, “STABLE PHARMACEUTICAL INJECTABLE COMPOSITIONS OF MICAFUNGIN” (CADILA HEALTHCARE LIMITED, priority 2017, published 2019)
Starred links: 1 amine or outer side, 2 acyl side, 3 side chain; linkers in the order of their positions; H or OH if unused. Positions of bridges follow the written chain, without caps; N, C: chain ends. Non-standard residues stand in square brackets, D forms with d. Residues, ends and D or L forms follow the SMILES beside them. ξ: configuration not given here. *: point of attachment. hTyr(3S-OH,4S-OH,3'-OSO3H) = N[C@H](C(=O)O)[C@H](O)[C@@H](O)c1ccc(O)c(OS(=O)(=O)O)c1; Orn(4R-OH,5R-OH) = O=C([C@H](C[C@@H](O)[C@@H](O)N[*:3])N[*:1])[*:2]; Pro(3S-OH,4S-Me) = C[C@H]1CN[C@H](C(=O)O)[C@H]1O; X1 = CCCCCOc1ccc(-c2cc(-c3ccc(C(=O)*)cc3)no2)cc1; Gln(3R-OH) = NC(=O)C[C@@H](O)[C@H](N)C(=O)O; Hyp = O=C(O)[C@@H]1C[C@@H](O)CN1; ξThr(3R) = C[C@@H](O)C(N)C(=O)O

Test: Inventors' finding on stability of micafungin in liquid state
Format: physicochemical

## CCCCCOc1ccc(-c2cc(-c3ccc(C(=O)N[C@H]4C[C@@H](O)[C@@H](O)NC(=O)[C@@H]5[C@@H](O)[C@@H](C)CN5C(=O)[C@H]([C@H](O)CC(N)=O)NC(=O)[C@H]([C@H](O)[C@@H](O)c5ccc(O)c(OS(=O)(=O)O)c5)NC(=O)[C@@H]5C[C@@H](O)CN5C(=O)C([C@@H](C)O)NC4=O)cc3)no2)cc1 (stereo partly drawn) [micafungin, Micafungin] (X1-[Orn(4R-OH,5R-OH)][ξThr(3R)][Hyp][hTyr(3S-OH,4S-OH,3'-OSO3H)][Gln(3R-OH)][Pro(3S-OH,4S-Me)]; lactam 1-C)
  Stability in liquid state: heat sensitive and shows temperature dependant degradation in liquid state
